Results as given in paper PMC10342533, “Novel Tetrazole Derivatives Targeting Tubulin Endowed with Antiproliferative Activity against Glioblastoma Cells” (International Journal of Molecular Sciences, 2023).

What was measured:
[1] = tested on: HCT8 (colorectal carcinoma); experiment: Cell growth inhibition, MTT assay, HCT8; type: cell-based; conditions: Homo sapiens
Method: (§1) The ability of the synthesized compounds to inhibit the cell proliferation of human cancer cell lines was assayed by measuring cell viability through the use of the MTT method 72 h after treatment. For this purpose, representative cell lines of the most frequent kinds of cancer were selected, including the following: HeLa (cervix epithelioid carcinoma), MCF7 (breast adenocarcinoma), U87 MG (glioblastoma), T98G (temozolomide resistant glioblastoma), HepG2 (hepatocellular carcinoma), HCT8 (colorectal carcinoma), and HT-29 (colon adenocarcinoma).
(§2) The cell lines were obtained from ATTC (Manassas, VA, USA). […] The cells were periodically tested for Mycoplasma infection by using a MycoAlert kit (Lonza, Norwest, Australia), and only Mycoplasma-free cells were used in the experiments.
(§3) Then, every compound was added (10 µL/well) to a final concentration of 10 µM. Untreated cells were used as negative controls. The antiproliferative activity of compounds was measured 72 h after drug exposure through the MTT assay. […] For this purpose, compounds were used at different concentrations, ranging from 10^−10 to 10^−2 M. Measurements were performed in triplicate, and each experiment was repeated three times. The IC50 values were determined using Origin software (version 9.6, OriginLab, Washington, DC, USA).

[2] = tested on: HEK-293 (embryonic kidney); experiment: Cell growth inhibition, MTT assay, non-tumor HEK-293; type: cell-based; conditions: Homo sapiens, HEK293, 72 h, non-tumorigenic cell line
Method: The ability of the synthesized compounds to inhibit the cell proliferation of human cancer cell lines was assayed by measuring cell viability through the use of the MTT method 72 h after treatment. For this purpose, representative cell lines of the most frequent kinds of cancer were selected, including the following: HeLa (cervix epithelioid carcinoma), MCF7 (breast adenocarcinoma), U87 MG (glioblastoma), T98G (temozolomide resistant glioblastoma), HepG2 (hepatocellular carcinoma), HCT8 (colorectal carcinoma), and HT-29 (colon adenocarcinoma). […] The compounds were also tested against the non-tumor HEK-293 cells to study their selectivity toward cancer cells. […] The cell lines were obtained from ATTC (Manassas, VA, USA). […] The cells were periodically tested for Mycoplasma infection by using a MycoAlert kit (Lonza, Norwest, Australia), and only Mycoplasma-free cells were used in the experiments. […] Louis, MO, USA), which was dissolved in PBS at 5 mg/mL in accordance with the manufacturer's instructions. […] Untreated cells were used as negative controls. The antiproliferative activity of compounds was measured 72 h after drug exposure through the MTT assay. […] For this purpose, compounds were used at different concentrations, ranging from 10^-10 to 10^-2 M. Measurements were performed in triplicate, and each experiment was repeated three times. The IC50 values were determined using Origin software (version 9.6, OriginLab, Washington, DC, USA).

[3] = tested on: microtubule network of U87 MG cells; experiment: Immunofluorescence confocal microscopy of microtubule network, U87 MG; type: cell-based, human; conditions: 24 h, 100 nM, α-tubulin immunofluorescence
Method: To elucidate if the interaction of the compounds with tubulin inferred from the in vitro TPI experiments has consequences on cellular microtubules, we studied the effect of representative compounds on the microtubule network of HeLa, MCF7, and U87 MG cells 24 h after treatment via the use of immunofluorescence confocal microscopy through α-tubulin and nuclei labeling.
HeLa, MCF7, and U87 MG cells (8·10^4 cells/mL) were grown on 0.01% poly-L-lysine pre-coated square glass coverslips (22 mm^2), deposited on 6-well plates (1 coverslip/well), and incubated in complete DMEM medium (see above) at 37 °C and 5% CO2 atmosphere for 24 h. Then, the cells were incubated for 24 h in the presence or absence (negative controls) of selected compounds (10, 12, or 14) at 100 nM. After drug treatment incubation, medium was removed, and coverslips were washed three times with PBS, fixed with 4% formaldehyde in PBS for 10 min, permeabilized with 0.5% Triton X-100, (Sigma-Aldrich, St. Louis, MO, USA) in PBS for 90 s at 4 °C, blocked with 10% BSA in PBS for 30 min, and washed with PBS four times. The coverslips were incubated for 1 h with anti-α-tubulin mouse monoclonal antibody (Sigma-Aldrich, St. Louis, MO, USA), diluted 1:200 in PBS containing 3% BSA, washed four times with PBS, and then incubated in darkness with the fluorescent secondary antibody Alexa Fluor 488 goat anti-mouse IgG (Molecular Probes, Invitrogen, Eugenen, OR, USA) and diluted 1:400 in PBS containing 1% BSA for 1.5 h. The coverslips were washed four times with PBS, and a drop of ProLong™ Gold Antifade Mountant containing DAPI (ThermoFisher, Waltham, MA, USA) was added for cell nuclei staining. The samples were analyzed via confocal microscopy, which was performed by using a LEICA SP5 microscope DMI-6000V model coupled to a LEICA LAS AF software computer.

HeLa cells = experiment: Cell cycle analysis by flow cytometry (PI), HeLa; type: cell-based, human; conditions: 100 nM
Method: To assess how tubulin polymerization inhibition and the effects on the microtubule network affect the cell cycle, flow cytometry experiments were performed on HeLa, MCF7, and U87 MG cells 24, 48, and 72 h after treatments with compounds 10, 12, and 14 at 100 nM using propidium iodide (PI) for DNA staining and untreated cells as the negative control.
HeLa, MCF7, or U87 MG cells were seeded in 6-well plates (8·10^4 cells/mL, 2 mL/well) and incubated in complete DMEM Medium (see above) at 37 °C and 5% CO2 atmosphere for 24 h. Then, the cells were treated with selected compounds (10, 12, or 14) at 100 nM, and untreated cells were used as negative controls. Cells were collected 24, 48, or 72 h following treatment and fixed overnight in ethanol/PBS (7:3) at 4 °C. After two washes with PBS, cells were suspended in PBS and incubated in darkness overnight with 0.2 mg/mL RNase A (Sigma-Aldrich, St. Louis, MO, USA), 50 µg/mL propidium iodide (Sigma-Aldrich, St. Louis, MO, USA), and Triton 10x at room temperature. A BD Accuri™ C6 Plus Flow Cytometer (BD Biosciences, Franklin Lakes, NJ, USA) cytometer was used to analyze the samples, and BD Accuri™ C6 Software (version 1.0.264.21) was used for data analysis.

U87 MG (glioblastoma) = experiment: Cell growth inhibition, MTT assay, U87 MG; type: cell-based; conditions: Homo sapiens, U-87 MG
Method: as §1, §2, §3

[4] = HCT-8, 72 h after drug exposure

IC50 [1, 4]	IC50 (U87 MG (glioblastoma); 72 h after drug exposure)	IC50 (U87 MG (glioblastoma); mean ± SD, Table S1)	IC50 ([1]; HCT-8, mean ± SD, Table S1)	Structure (SMILES)	IC50 [2]	effect on microtubule network [3]	G0/G1 population (HeLa cells; 24 h)	G2/M population (HeLa cells; 24 h)	S population (HeLa cells; 24 h)	SubG0/G1 population (HeLa cells; 24 h)	G0/G1 population (HeLa cells; 48 h)	G2/M population (HeLa cells; 48 h)	S population (HeLa cells; 48 h)	SubG0/G1 population (HeLa cells; 48 h)	G0/G1 population (HeLa cells; 72 h)	G2/M population (HeLa cells; 72 h)	S population (HeLa cells; 72 h)	SubG0/G1 population (HeLa cells; 72 h)
40 nM	22 nM	22.2 ± 0.1 nM		CSc1cc(-c2nnnn2-c2ccc3c(ccn3C)c2)cc(Cl)n1 [Compound 10, 5-(5-(2-chloro-6-(methylsulfanyl)pyridin-4-yl)-1H-tetrazol-1-yl)-1-methyl-1H-indole]	4390 nM	severe microtubule network disruption	18.1 % Cells	59.5 % Cells	3.9 % Cells	18.6 % Cells	16.7 % Cells	45.9 % Cells	7.6 % Cells	29.1 % Cells	14.4 % Cells	35.2 % Cells	4.9 % Cells	45.6 % Cells
40 nM	17 nM	17.1 ± 0.1 nM	40.1 ± 0.3 nM	Cn1cc(C=O)c2cc(-n3nnnc3-c3cc(Cl)nc(Cl)c3)ccc21 [Compound 12, 5-(5-(2,6-dichloropyridin-4-yl)-1H-tetrazol-1-yl)-1-methyl-1H-indole-3-carbaldehyde]	3080 nM	severe microtubule network disruption	20.0 % Cells	57.8 % Cells	4.6 % Cells	17.8 % Cells	18.2 % Cells	40.8 % Cells	7.8 % Cells	32.5 % Cells	15.3 % Cells	34.0 % Cells	5.6 % Cells	45.4 % Cells
29 nM	12 nM		29.4 ± 0.2 nM	CSc1cc(-c2nnnn2-c2ccc3c(c2)c(C=O)cn3C)cc(Cl)n1 [Compound 14, 5-(5-(2-chloro-6-(methylsulfanyl)pyridin-4-yl)-1H-tetrazol-1-yl)-1-methyl-1H-indole-3-carbaldehyde]	2270 nM	severe microtubule network disruption	16.6 % Cells	47.0 % Cells	3.7 % Cells	32.7 % Cells	17.1 % Cells	34.1 % Cells	7.0 % Cells	41.3 % Cells	9.6 % Cells	25.4 % Cells	8.1 % Cells	57.4 % Cells
